Laboratory results published in patent publication US20250325529A1, “INHIBITORS OF FATTY ACID BINDING PROTEINS (FABPs), METHODS OF USE AND METHODS OF MAKING” (Celloram, inc., priority 2024, published 2025).
“Also recorded” adds a separate entry of the source.

Columns and labels:
FABP4 = FABP4 (Homo sapiens (Human), UniProt P15090); assay: Fluorescence (ANS) competition binding assay, FABP4; settings: ANS displacement
How it was run: (§1)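 His-tagged FABPs were expressed in E. coli. Kd for ANS was first determined by titrating 2 μM protein with ANS and following fluorescence increase. Compounds then displaced ANS from 1:1 protein:ANS complexes, and Kd was derived from the competition EC50 and the ANS Kd.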

FABP3 = FABP3 (Homo sapiens (Human), UniProt P05413); assay: Fluorescence (ANS) competition binding assay, FABP3; settings: ANS displacement
How it was run: as §1

PPARγ = PPARγ (Homo sapiens (Human), UniProt P37231); assay: Transcriptional activation assay in COS7 cells, PPARγ; type: cell-based; settings: PPRE luciferase reporter, PD151 and PD152 at 10 μM
Protocol: COS-7 were cultured in 6-well plates and co-transfected with either a luciferase reporter driven by 3 copies of a PPRE and expression vector for either PPARδ, PPARα or PPARγ together with a vector harboring cDNA for β-galactosidase, serving as a transfection control. To test whether FABP4 or FABP5 mediate activation of their cognate receptors PPARγ and PPARδ, respectively, cells were also co-transfected with a plasmid harboring sequence of either FABP4 or FABP5. 18 h post-transfection, cells were placed in a serum-free medium and treated with agonist/compound. 18 h. later, cells were lysed, luciferase activity was assayed (Promega, WI, USA) and corrected for transfection efficiency by the activity of β-galactosidase.
Transcriptional activation assays were carried out utilizing COS7 cells as described above.

MB-231 xenograft tumors = assay: TNBC MB-231 xenograft model; type: in vivo, Nu/Nu nude mice; settings: oral 20 or 40 mg/Kg, 5 times a week
Protocol: Seven-week-old Nu/Nu athymic female mice were injected subcutaneously into the right flank with 5×10^6 MB-231 cells 1:1 with Matrigel. Once tumors reached ˜50 mm^3 in size, mice were divided into 3 groups (n=5 for each group) and treatment started. Mice were treated by gavage with either vehicle (0.5% methyl cellulose, 1% Tween 80), 20 mg/kg, or 40 mg/kg of PD152 dissolved in vehicle, 5 days a week. Thirty days after treatment started mice were scarified. Statistical significance between the different treatment groups was evaluated using a Student's t-test. The experiment was conducted after approval by the institutional animal care and use committee at Case Western Reserve University.
TNBC xenograft model was used to test the efficacy of PD152 in suppressing tumors growth in vivo. 5×10^6 MB-231 cells were subcutaneously injected into the right flank of Nu/Nu nude mice and tumor growth was monitored twice a week. Once tumors were established and reached volume of ˜50 mm^3, mice were divided into 3 groups and treatments started. Mice were treated orally by either PD152 (20 mg/Kg, or 40 mg/Kg), or a vehicle 5 times a week.

[1] = system: NOD mouse model of autoimmune type 1 diabetes; assay: NOD mouse model of autoimmune type 1 diabetes; type: in vivo, NOD/ShiLtJ mice; settings: female NOD mice
Protocol: Female NOD/ShiLtJ mice were purchased from Jackson's lab at age of 7 weeks. Mice were housed in a temperature-controlled facility (23° C., 12-h light/dark cycle). Weekly non-fasting blood glucose concentrations were measured in the morning by tail vein prick starting at 8 weeks of age by using a blood glucose test meter (OTUltra2 system, Lifescam, USA) and strips according to manufacturer's instruction. Any reading of blood glucose higher than 200 mg/dL was confirmed by another test 24 hours later. Diabetes was diagnosed by 2 consensus positive blood glucose tests higher than 200 mg/dL. At 13 weeks of age, mice were divided into 3 treatments groups (n=15/group) as followed: 1) control group, treated with vehicle (0.5% methyl cellulose, 1% Tween 80); 2) PD152 treated group (40 mg/Kg in vehicle); 3) anti-CD3 treated group (5 μg/mouse, in PBS). Groups 1 and 2 were treated by gavage 5 days a week throughout the duration of the experiment. Group 3 was treated by IV injection for only 5 consecutive days. Mice were sacrificed at the age of 27 weeks.
NOD mouse model of autoimmune type 1 diabetes was used to test the efficacy of FABP4/5 inhibitor PD152 on spontaneous development of the disease. […] Blood glucose levels were measured weekly for monitoring the incidence of diabetes until termination at 27 weeks of age. […]

Sequence of PPARγ (P37231 whole entry, species assumed): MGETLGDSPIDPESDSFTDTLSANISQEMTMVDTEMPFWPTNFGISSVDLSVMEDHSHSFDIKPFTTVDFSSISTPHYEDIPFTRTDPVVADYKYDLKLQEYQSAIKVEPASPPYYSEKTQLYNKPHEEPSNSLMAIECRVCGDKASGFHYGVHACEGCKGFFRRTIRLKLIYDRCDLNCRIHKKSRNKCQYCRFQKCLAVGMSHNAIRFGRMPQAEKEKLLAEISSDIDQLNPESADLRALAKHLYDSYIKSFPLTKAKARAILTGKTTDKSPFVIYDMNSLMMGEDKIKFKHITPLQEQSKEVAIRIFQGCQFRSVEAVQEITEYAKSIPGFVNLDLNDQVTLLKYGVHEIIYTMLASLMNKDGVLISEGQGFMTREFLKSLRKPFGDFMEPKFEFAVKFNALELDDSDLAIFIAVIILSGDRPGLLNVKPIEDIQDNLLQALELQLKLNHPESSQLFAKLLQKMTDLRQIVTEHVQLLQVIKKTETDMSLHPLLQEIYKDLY
Sequence of FABP3 (P05413 whole entry, species assumed): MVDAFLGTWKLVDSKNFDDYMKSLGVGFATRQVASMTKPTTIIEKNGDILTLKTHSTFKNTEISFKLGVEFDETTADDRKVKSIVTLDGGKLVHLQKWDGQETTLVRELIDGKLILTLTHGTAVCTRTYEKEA
Sequence of FABP4 (P15090 whole entry, species assumed): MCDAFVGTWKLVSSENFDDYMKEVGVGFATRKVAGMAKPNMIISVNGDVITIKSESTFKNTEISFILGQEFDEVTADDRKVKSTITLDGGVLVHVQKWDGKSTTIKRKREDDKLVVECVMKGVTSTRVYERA

CC(C)Oc1nc(NC(=O)CSCC(=O)O)c(Cl)cc1Cl [PD152, 2-((2-((3,5-dichloro-6-isopropoxypyridin-2-yl)amino)-2-oxoethyl)thio)acetic acid]
Kd (FABP4): 18 nM
Kd (FABP3): 188 nM
Activation of transcription by PPARγ (PPARγ): None of these tested compounds activated; also recorded: none of the tested compounds PD151 and PD152 activated transcription
Tumor growth (volume over time) (MB-231 xenograft tumors; 30 days): growth was completely inhibited
Tumor weight at end point (MB-231 xenograft tumors; day 30): significantly lower
Diabetes incidence ([1]; 40 mg/Kg by gavage 5 days a week from 13 weeks, by 27 weeks of age): 46.7%
Lower blood glucose levels, difference to control ([1]; at 27 weeks of age): about 2 fold
